This note sets out measurements from article PMC8692498, “Synthesis and multifaceted pharmacological activity of novel quinazoline NHE-1 inhibitors” (Scientific Reports, 2021).

Entries after “also recorded” stand apart in the source; their conditions may differ.

The target of data set [1] is T1, NHE-1 (Oryctolagus cuniculus, UniProt P23791).
T1 construct: endogenous in cells; host or cells: rabbit platelets in platelet-rich plasma (male rabbits)
Description: NHE-1 inhibition assay on rabbit platelets (platelet shape change after acidification with sodium propionate, laser aggregometer). Particulars: for inhibition at 0.01 µM: 10 nM, rabbit platelet-rich plasma, decimal commas, read-out: NHE-1 inhibition at 10 nM, m ± SD, n = 6 (%); for NHE-1 inhibitory activity (in words): compared with reference drugs. Format: cell-based. The procedure: Evaluation of NHE-1 inhibition was carried out on rabbit platelets by the known method[39],[40]. The experiments were carried out on 15 male rabbits weighing 3.0-4.0 kg. Platelet-rich plasma (PRP) was obtained by centrifuging blood with 3.8% sodium citrate (1:10) at 1000 rpm for 12 min (Multi centrifuge CM 6M, Latvia). Platelet shapeshifting due to acidification was followed with a laser aggregometer BIOLA-220 LA (Russia). Test compounds (10 μl, 10 nM final concentration) were added to 200 μl of PRP 5 min in a cuvette before the addition of sodium propionate solution, incubated with constant stirring using a magnetic stirrer (800 rpm, 37 °C). To control samples for NHE-1 activation, a buffer solution containing sodium propionate was added to 200 μL of PRP (600 μL, 135 mM sodium propionate, 20 mM HEPES, 1 mM CaCI2, 1 mM MgCI2, 10 mM glucose; pH 6.7). The change in light transmission at pH 7.4, 37 °C was monitored in a Krebs solution (600 μL, 120 mM NaCl, 4.8 mM KCl, 1.2 mM KH2PO4, 2.5 mM MgSO4, 25 mM NaHCO3, 2.6 mM CaCl2, 5.4 mM glucose; pH 7.4). Test compounds were added to a final concentration of 10 nM to the cuvette into 200 μl of PRP 5 min before adding the sodium propionate solution, incubated with constant stirring using a magnetic stirrer (800 rpm, 37 °C). NHE-1 inhibitors zoniporide, rimeporide, amiloride were used as reference drugs. Assays were run in 6 independent series.

The nature of data set [2]: Cytotoxicity study (LDH activity in the medium) in peritoneal macrophages. Conditions: male, C57BL/6J, mouse, primary peritoneal macrophages; murine peritoneal macrophages, LDH, unit printed in Cyrillic. Format: cell-based. On the procedure: (§1) Peritoneal macrophages (PM) were isolated from the peritoneal exudate of 30 male C57bl/6j mice. To accumulate PM, 1 ml of 3% peptone solution was injected intraperitoneally. After 3 days the mice were euthanized by cervical dislocation. Cells of peritoneal exudate were obtained by aseptically washing the abdominal cavity with 5 ml of sterile Hanks’s solution (+ 4-6 °C) without calcium and magnesium ions. The total number and viability of cells were assessed in a Goryaev counting chamber (Russia) with a 0.4% trypan blue staining (Sigma-Aldrich, USA). The cell concentration was adjusted to 1.0×10^6 cells/ml in DMEM (Gibco) supplemented with 2 mM L-glutamine (Gibco), 10% heat-inactivated fetal bovine serum (BioClot, Germany), 100 U/ml penicillin and […] streptomycin (Gibco) and plated 200 μl/well in 96-well transparent plates (SPL Life Sciences Co., Ltd., Korea). It was left for 2 h at 37°C in a humidified atmosphere with 5% CO2, after which the wells were washed to remove non-adherent cells. After 24 hours of incubation, 20 μl of the supernatant was removed and 20 μl of solutions of test compounds were added 30 min before E. coli O127:B8 LPS (100 ng/ml final concentration). Experiments were run in 3 independent replicates.
(§2) The activity of lactate dehydrogenase (LDH) in a cell culture medium served as a marker of membrane permeability and cell death. Aliquotes of supernatants were taken after 24 h of inoculation with test compounds, mixed with 250 μl of […] NADH solution in 54 mM phosphate buffered saline (pH 7.5). Then, 25 μl of a 6.48 mM pyruvate solution was added to the mixture. The optical density was followed at a wavelength of 340 nm for 20 min. Conversion of optical density into cell viability was carried out according to a standard curve (DMSO-treated cells as 100% and 0.01% Triton X-100-treated cells as 0% viable cells).

Data set [3] concerns the target T1, NHE-1. Kind of data set: NHE-1 inhibition assay on rabbit platelets (platelet shape change after acidification with sodium propionate, laser aggregometer). Format: cell-based.
The test system of data set [4] is primary peritoneal macrophages of C57BL/6J mice. Kind of data set: Interleukin-6 secretion (ELISA) from LPS-stimulated peritoneal macrophages. Conditions: for secretion of interleukin 6: LPS-stimulated macrophages, screening (Fig. 4). Format: cell-based. On the procedure: as §1
Cell supernatant was collected and centrifuged at 1000 g for 20 min in a 2-16PK Sigma centrifuge (Germany). The concentration of IL-6 was determined by ELISA using a commercial kit (Cloud-clone ELISA kit) with a microplate reader Infinite M200 PRO (Tecan, Austria).

In the next data set the test system is rabbit platelets. Kind of data set: ADP-induced platelet aggregation assay in rabbit platelet-rich plasma. Format: cell-based. Particulars: 100 μM, ADP 5 μM. On the procedure: (§3) Functional activity of platelets was determined on a two-channel laser analyzer of platelet aggregation "BIOLA-220 LA" (Russia) as described previously. The experiments were carried out on 6 male rabbits weighing 3.5–4 kg. To prepare platelet-rich plasma (PRP) venous blood was taken from the ear marginal vein of a rabbit, stabilized with a 3.8% sodium citrate solution in a ratio of 9:1 and centrifuged for 10 min at 1500 rpm. PRP (300 μL) and a solution of the test compound at a concentration of 100 μM were sequentially introduced into the cell of the aggregometer. The samples were incubated in thermostated cells of the aggregometer at 37 °C for 5 min. To induce aggregation adenosine-5-diphosphoric acid (ADP, Sigma, USA) at a final concentration of 5 μM, was added to the cuvette. Acetylsalicylic acid (Shandong Xinhua Pharmaceutical Co., Ltd., China) was used as a reference drug. Experiments were run in 5 independent replicates.

Another data set concerns intraocular pressure. Kind of data set: Intraocular pressure studies in outbred rats (TonoVet). Format: in vivo. The procedure:
The experiments were carried out on 75 adult outbred rats of both sexes, which were kept in standard cages at a temperature of 25 °C and a standard light regime. Animals were randomly assigned to the control and experimental groups (n = 5). Before the start of the experiment, the rats had free access to food and water. Intraocular pressure (IOP) was measured with a TonoVet device (Finland)[44] which measures IOP with a short touch of a small disposable tip in the center of the cornea, no corneal anesthesia is required. The study was carried out according to the published method. One drop (50 μl) of a test 0.4% solution of the compound was instilled into the right eye, and deionized water was added to the left eye. IOP was measured in both eyes. The left eye, in turn, serves to assess the possible systemic exposure of the test compounds. […] IOP-lowering activity was assessed as the maximum decrease in IOP from the initial values. At 9:00 AM, baseline IOP was measured in animals of all groups. Experiments were run in 5 independent replicates.

Data set [5] deals with primary peritoneal macrophages of C57BL/6J mice. Description: Cytotoxicity study (LDH activity in the medium) in peritoneal macrophages. In kind it is cell-based. Conditions: 100 μM, peritoneal macrophages. On the procedure: as §1, §2
Data set [6] shares this test system. Kind of data set: Nitric oxide synthesis (nitrite, Griess reagent) in LPS-stimulated peritoneal macrophages. In kind it is cell-based. Particulars: 100 μM. The procedure: as §1
The accumulation of nitrite anion (a stable end product of NO decomposition produced by iNOS) in supernatants was determined using a standard Griess reagent. Briefly, 50 μl of supernatants collected 22 hours after incubation of PM with test and control compounds were mixed with 50 μl of 1% sulfonamide in 2.5% H3PO4 and 50 μl of 0.1% N-(1-naphthyl) ethylenediamine in 2,5% H3PO4. After incubation at 23 °C for 10 min in an orbital shaker, the optical density was determined at a wavelength of 550 nm with a microplate reader Infinite M200 PRO (Tecan, Austria).

Data set [7] is described as follows: Solubility under the conditions of the platelet aggregation assay. In kind it is physicochemical. Conditions: antiplatelet assay. The procedure:
Test compounds were dissolved in 99% DMSO (stock concentration 40 mM) and stored at –25 °C. If sediment or opalescence was detected, 5% Tween 20 (Merck) was added. Serial dilutions were prepared ex tempore in a media suitable for the particular study. Final concentration in samples: DMSO <0.25%, Tween 20 <0.025% (were added to control samples in equal concentrations).
as §3

T1 sequence (P23791 whole entry): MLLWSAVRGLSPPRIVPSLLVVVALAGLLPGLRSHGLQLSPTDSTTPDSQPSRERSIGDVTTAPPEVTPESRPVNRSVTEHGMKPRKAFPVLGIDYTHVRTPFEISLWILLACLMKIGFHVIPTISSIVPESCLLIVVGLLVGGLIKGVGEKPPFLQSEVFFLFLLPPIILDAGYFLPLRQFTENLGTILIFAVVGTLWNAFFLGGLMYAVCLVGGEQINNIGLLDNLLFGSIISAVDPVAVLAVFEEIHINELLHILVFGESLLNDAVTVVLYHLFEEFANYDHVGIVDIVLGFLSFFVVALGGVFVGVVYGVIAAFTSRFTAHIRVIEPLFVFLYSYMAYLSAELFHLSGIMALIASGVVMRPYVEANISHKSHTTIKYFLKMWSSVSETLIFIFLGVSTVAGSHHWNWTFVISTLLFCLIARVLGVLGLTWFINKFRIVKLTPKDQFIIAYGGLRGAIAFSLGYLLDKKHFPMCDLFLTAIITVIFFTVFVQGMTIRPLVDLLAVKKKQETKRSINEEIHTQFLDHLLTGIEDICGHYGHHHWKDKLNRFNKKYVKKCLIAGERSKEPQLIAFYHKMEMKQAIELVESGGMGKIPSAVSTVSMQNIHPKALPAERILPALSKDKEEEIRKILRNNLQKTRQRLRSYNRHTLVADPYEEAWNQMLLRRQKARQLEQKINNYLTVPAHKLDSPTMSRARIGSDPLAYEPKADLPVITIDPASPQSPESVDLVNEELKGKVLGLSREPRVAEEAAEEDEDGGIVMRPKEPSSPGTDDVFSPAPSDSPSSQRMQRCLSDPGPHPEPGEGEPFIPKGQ

Compound `CC(c1nnc(N)[nH]1)n1c(=O)c2ccccc2n(C)c1=O` (centres unmarked) (hydrate or solvate) [Compound 3f, 3-[1-(5-Amino-4H-1,2,4-triazol-3-yl)ethyl]-1-methylquinazoline-2,4(1H,3H)-dione] returned a melting point of 91 to 93 °C.
Compound `C=CCn1c(=O)n(C(C)c2nnc(N)[nH]2)c(=O)c2ccccc21` (centres unmarked) (hydrate or solvate) [Compound 3h, 3-[1-(5-Amino-4H-1,2,4-triazol-3-yl)ethyl]-1-(prop-2-en-1-yl)quinazoline-2,4(1H,3H)-dione] yielded a melting point of 116 to 118 °C.
Consider `N=C(N)NC(=O)c1nc(Cl)c(N)nc1N` [Amiloride, amiloride, reference compound], for which the inhibition at 0.01 µM on NHE-1 [1] came out at 16.4%. Further, the CC50 at 24 h in [2] was greater than 100000 nM. Also, the IC50 is 1230 nM against NHE-1 [3] and 9520 nM in [4] (Mus musculus, Peritoneal macrophage, LPS-stimulated murine macrophages, unit printed in Cyrillic, read-out: IC50 of IL-6 secretion).
As to `Cn1c(=O)n(CC(=O)NC(=N)N)c(=O)c2ccccc21` [Compound 3a, N-Carbamimidoyl-2-(1-methyl-2,4-dioxo-1,4-dihydroquinazolin-3(2H)-yl)acetamide], the melting point lay in the range of 266 to 269 °C. Further, on NHE-1 [1], the inhibition at 0.01 µM worked out at 33.7% and the “NHE-1 inhibitory activity (in words)” value is “comparable to the reference drug rimeporide”. The IC50 against NHE-1 [3] was found to be 293 nM. In addition, the “antiplatelet activity versus acetylsalicylic acid” value in the data set on rabbit platelets is listed as “exceeded the activity of the reference drug, acetylsalicylic acid”.
`CC(C(=O)NC(=N)N)n1c(=O)c2ccccc2n(C)c1=O` (centres unmarked) [Compound 3b, N-Carbamimidoyl-2-(1-methyl-2,4-dioxo-1,4-dihydroquinazolin-3(2H)-yl)propanamide] had a melting point of 216 to 219 °C. Besides, the inhibition at 0.01 µM at NHE-1 [1] worked out at 1.49%. For the same compound, the “secretion of interleukin 6” value in [4] was “suppressed”.
`N=C(N)NC(=O)Cn1c(=O)c2ccccc2n(Cc2ccccc2)c1=O` [Compound 3c, 2-(1-Benzyl-2,4-dioxo-1,4-dihydroquinazolin-3(2H)-yl)-N-carbamimidoylacetamide] displayed a melting point of 180 to 183 °C. The inhibition at 0.01 µM on NHE-1 [1] stood at 7.3%. Moreover, the “secretion of interleukin 6” value in data set [4] is reported as “suppressed”.
Regarding `Cn1c(=O)n(CC(=O)NC(=N)N)c(=O)c2cc(Br)ccc21` [Compound 3d, 2-(6-Bromo-1-methyl-2,4-dioxo-1,4-dihydroquinazolin-3(2H)-yl)-N-carbamimidoylacetamide], in the data set with intraocular pressure (compared with zoniporide and timolol), the IOP-lowering effect size entry is “comparable to zoniporide and superior to timolol”. In addition, the IOP-lowering activity result with intraocular pressure (one drop (50 μl) of 0.4% solution instilled) was “statistically significant activity; also recorded: markedly reduce intraocular pressure”. Further, at NHE-1 [1], the inhibition at 0.01 µM was found to be 33.2% and the “NHE-1 inhibitory activity (in words)” value is “comparable to the reference drug rimeporide”. The “effect on cell viability” value in data set [5] is on record as “absence of a statistically significant effect on cell viability”. In addition, 961 nM corresponded to half-maximal inhibition against NHE-1 [3] (IC50). Moreover, the “inhibition of the synthesis of nitric oxide” value in data set [6] is listed as “statistically significantly inhibit”.
Consider `CC(c1nnc(N)[nH]1)n1c(=O)c2ccccc2n(C)c1=O` (centres unmarked) [Compound 3f, 3-[1-(5-Amino-4H-1,2,4-triazol-3-yl)ethyl]-1-methylquinazoline-2,4(1H,3H)-dione], for which the inhibition at 0.01 µM at NHE-1 [1] turned out to be 29.8%. Besides, the “antiplatelet activity versus acetylsalicylic acid” value in the data set with rabbit platelets was “exceeded the activity of the reference drug, acetylsalicylic acid”.
As for `C=CCn1c(=O)n(Cc2nnc(N)[nH]2)c(=O)c2ccccc21` [Compound 3g, 3-[(5-Amino-4H-1,2,4-triazol-3-yl)methyl]-1-(prop-2-en-1-yl)quinazoline-2,4(1H,3H)-dione], the melting point lay within 275 to 277 °C. In addition, the inhibition at 0.01 µM on NHE-1 [1] came out at 10.4%.
As for `C=CCn1c(=O)n(C(C)c2nnc(N)[nH]2)c(=O)c2ccccc21` (centres unmarked) [Compound 3h, 3-[1-(5-Amino-4H-1,2,4-triazol-3-yl)ethyl]-1-(prop-2-en-1-yl)quinazoline-2,4(1H,3H)-dione], on NHE-1 [1], the inhibition at 0.01 µM is 33.2% and the “NHE-1 inhibitory activity (in words)” value is recorded as “comparable to the reference drug rimeporide”. Moreover, in the data set with rabbit platelets, the “antiplatelet activity versus acetylsalicylic acid” value is “exceeded the activity of the reference drug, acetylsalicylic acid”.
On to `Nc1nnc(Cn2cnc3ccccc3c2=O)[nH]1` [Compound 6a, 3-[(5-Amino-4H-1,2,4-triazol-3-yl)methyl]quinazolin-4(3H)-one], for which, at NHE-1 [1], the inhibition at 0.01 µM is 54.1%; the “NHE-1 inhibitory activity (in words)” value is “more potent and comparable to zoniporide”. The “solubility under assay conditions” value in data set [7] is “insoluble under assay conditions”. On NHE-1 [3], this compound had a half-maximal inhibitory concentration (IC50) of 6.7 nM.
Turning to `[H]/N=C(\N)NC(=O)c1cc(S(C)(=O)=O)c(S(C)(=O)=O)cc1C` [Rimeporide, rimeporide, reference compound], the inhibition at 0.01 µM at NHE-1 [1] was 34.2%.
In the case of `N=C(N)NC(=O)c1cnn(-c2cccc3ncccc23)c1C1CC1` [Zoniporide, zoniporide, reference compound], the inhibition at 0.01 µM on NHE-1 [1] turned out to be 48%. This compound also gave an IC50 against NHE-1 [3] of 7.3 nM.
